Results taken from ChEMBL document CHEMBL5528067, “From Synergy to Monotherapy: Discovery of Novel 2,4,6-Trisubstituted Triazine Hydrazone Derivatives with Potent Antifungal Potency In Vitro and In Vivo” (J Med Chem, 2024).
Values after ≈ are worked out from the molar mass of the structure shown.

Assays:
Assay type in all cases: functional
Candida albicans [1] = test: Synergistic antifungal activity against FCZ-resistant Candida albicans strain 901 assessed as fractional inhibitory concentration index measured after 48 hrs in presence of FCZ by CLSI based micro-dilution broth method
Candida albicans [2] = test: Antifungal activity against FCZ-resistant Candida albicans strain 904 assessed as growth inhibition measured after 48 hrs incubation by CLSI based micro-dilution broth method
Candida albicans [3] = test: Synergistic antifungal activity against FCZ-resistant Candida albicans strain 904 assessed as fractional inhibitory concentration index measured after 48 hrs in presence of FCZ by CLSI based micro-dilution broth method
Candida albicans [4] = test: Antifungal activity against FCZ-resistant Candida albicans strain 904 assessed as growth inhibition in presence of fluconazole measured after 48 hrs incubation by CLSI based micro-dilution broth method
Candida albicans [5] = test: Antifungal activity against FCZ-resistant Candida albicans strain 901 assessed as growth inhibition in presence of fluconazole measured after 48 hrs incubation by CLSI based micro-dilution broth method
Candida albicans [6] = test: Antifungal activity against FCZ-resistant Candida albicans strain 901 assessed as growth inhibition measured after 48 hrs incubation by CLSI based micro-dilution broth method
Candida albicans [7] = test: Antifungal activity against FCZ-resistant Candida albicans SC5314 assessed as growth inhibition measured after 48 hrs incubation by CLSI based micro-dilution broth method
[Candida] auris [8] = Antifungal activity against FCZ-resistant Candida auris 919 assessed as growth inhibition measured after 48 hrs incubation by CLSI based micro-dilution broth method; conditions: Candidozyma auris
Candida parapsilosis = test: Antifungal activity against Candida parapsilosis 22019 assessed as growth inhibition measured after 48 hrs incubation by CLSI based micro-dilution broth method; conditions: Lodderomyces parapsilosis
Nakaseomyces glabratus = test: Antifungal activity against Candida glabrata 537 assessed as growth inhibition measured after 48 hrs incubation by CLSI based micro-dilution broth method
Pichia kudriavzevii = test: Antifungal activity against Candida krusei 4996 assessed as growth inhibition measured after 48 hrs incubation by CLSI based micro-dilution broth method
[Candida] auris [9] = Antifungal activity against FCZ-resistant Candida auris 918 assessed as growth inhibition measured after 48 hrs incubation by CLSI based micro-dilution broth method; conditions: Candidozyma auris
Candida albicans [10] = test: Antifungal activity against FCZ-resistant Candida albicans 10231 assessed as growth inhibition measured after 48 hrs incubation by CLSI based micro-dilution broth method
Cryptococcus neoformans = test: Antifungal activity against Cryptococcus neoformans 32609 assessed as growth inhibition measured after 48 hrs incubation by CLSI based micro-dilution broth method
Candida tropicalis = test: Antifungal activity against Candida tropicalis 8915 assessed as growth inhibition measured after 48 hrs incubation by CLSI based micro-dilution broth method

| SMILES | fractional inhibitory concentration index (FICI) (Candida albicans [1]) | MIC80 (Candida albicans [2]) [µg/mL] | fractional inhibitory concentration index (FICI) (Candida albicans [3]) | MIC80 (Candida albicans [4]) [µg/mL] | MIC80 (Candida albicans [5]) [µg/mL] | MIC80 (Candida albicans [6]) [µg/mL] | MIC80 (Candida albicans [7]) [µg/mL] | MIC80 ([Candida] auris [8]) [µg/mL] | MIC80 (Candida parapsilosis) [µg/mL] | MIC80 (Nakaseomyces glabratus) [µg/mL] | MIC80 (Pichia kudriavzevii) [µg/mL] | MIC80 ([Candida] auris [9]) [µg/mL] | MIC80 (Candida albicans [10]) [µg/mL] | MIC80 (Cryptococcus neoformans) [µg/mL] | MIC80 (Candida tropicalis) [µg/mL] |
| --- | --- | --- | --- | --- | --- | --- | --- | --- | --- | --- | --- | --- | --- | --- | --- |
| Fc1ccc(CNc2nc(NCc3ccc(F)cc3)nc(N/N=C/c3ccccc3F)n2)cc1 | 1.13 | > 64 | 1.13 | > 64 | > 64 | > 64 |  |  |  |  |  |  |  |  |  |
| O=[N+]([O-])c1ccc(O)c(/C=N/Nc2nc(NCc3ccccc3)nc(NCc3ccc(F)cc3)n2)c1 |  |  |  |  |  |  | 2 (≈ 4.09 µM) | 16 (≈ 32.8 µM) | 4 (≈ 8.19 µM) | 0.5 (≈ 1.02 µM) | 1 (≈ 2.05 µM) | 4 (≈ 8.19 µM) | 8 (≈ 16.4 µM) | 2 (≈ 4.09 µM) | 2 (≈ 4.09 µM) |
| COc1ccc(Nc2nc(N/N=C/c3cc([N+](=O)[O-])ccc3O)nc(Nc3ccc(OC)cc3)n2)cc1 |  |  |  |  |  |  | 2 (≈ 3.98 µM) | > 64 | > 64 | 2 (≈ 3.98 µM) | 1 (≈ 1.99 µM) | > 64 | 16 (≈ 31.8 µM) | 2 (≈ 3.98 µM) | 4 (≈ 7.96 µM) |
| Cc1ccc(/C=N/Nc2nc(NCc3ccc(F)cc3)nc(NCc3ccc(F)cc3)n2)cc1 | 1.13 | > 64 | 1.13 | > 64 | > 64 | > 64 |  |  |  |  |  |  |  |  |  |
| Fc1ccc(CNc2nc(NCc3ccc(F)cc3)nc(N/N=C/c3ccc(I)cc3)n2)cc1 | 1.13 | > 64 | 1.13 | > 64 | > 64 | > 64 |  |  |  |  |  |  |  |  |  |
| O=[N+]([O-])c1ccc(O)c(/C=N/Nc2nc(NCc3ccco3)nc(NCc3ccco3)n2)c1 |  |  |  |  |  |  | 2 (≈ 4.44 µM) | 4 (≈ 8.88 µM) | 4 (≈ 8.88 µM) | 1 (≈ 2.22 µM) | 1 (≈ 2.22 µM) | 4 (≈ 8.88 µM) | 8 (≈ 17.8 µM) | 2 (≈ 4.44 µM) | 2 (≈ 4.44 µM) |
| O=[N+]([O-])c1cccc(/C=N/Nc2nc(NCc3ccc(F)cc3)nc(NCc3ccc(F)cc3)n2)c1 | 1.13 | > 64 | 1.13 | > 64 | > 64 | > 64 |  |  |  |  |  |  |  |  |  |
| COc1ccc(/C=N/Nc2nc(NCc3ccc(F)cc3)nc(NCc3ccc(F)cc3)n2)cc1 | 1.13 | > 64 | 1.13 | > 64 | > 64 | > 64 |  |  |  |  |  |  |  |  |  |
| Cc1ccccc1/C=N/Nc1nc(NCc2ccc(F)cc2)nc(NCc2ccc(F)cc2)n1 | 1.13 | > 64 | 1.13 | > 64 | > 64 | > 64 |  |  |  |  |  |  |  |  |  |
| Fc1ccc(CNc2nc(NCc3ccc(F)cc3)nc(N/N=C/c3ccccc3)n2)cc1 | 1.13 | > 64 | 1.13 | > 64 | > 64 | > 64 |  |  |  |  |  |  |  |  |  |
| O=[N+]([O-])c1ccc(/C=N/Nc2nc(NCc3ccc(F)cc3)nc(NCc3ccc(F)cc3)n2)cc1O | 0.19 | > 64 | 0.19 | 4 | 4 | > 64 |  |  |  |  |  |  |  |  |  |
| Cc1cccc(/C=N/Nc2nc(NCc3ccc(F)cc3)nc(NCc3ccc(F)cc3)n2)c1 | 1.13 | > 64 | 1.13 | > 64 | > 64 | > 64 |  |  |  |  |  |  |  |  |  |
| O=[N+]([O-])c1ccc(/C=N/Nc2nc(NCc3ccc(F)cc3)nc(NCc3ccc(F)cc3)n2)cc1 | 1.13 | > 64 | 1.13 | > 64 | > 64 | > 64 |  |  |  |  |  |  |  |  |  |
| COc1ccc(Nc2nc(NCc3ccco3)nc(N/N=C/c3cc([N+](=O)[O-])ccc3O)n2)cc1 |  |  |  |  |  |  | 2 (≈ 4.2 µM) | 8 (≈ 16.8 µM) | 4 (≈ 8.4 µM) | 0.5 (≈ 1.05 µM) | 1 (≈ 2.1 µM) | 8 (≈ 16.8 µM) | 8 (≈ 16.8 µM) | 2 (≈ 4.2 µM) | 4 (≈ 8.4 µM) |
| O=[N+]([O-])c1cc(O)cc(/C=N/Nc2nc(NCc3ccc(F)cc3)nc(NCc3ccc(F)cc3)n2)c1 | 0.25 | > 64 | 0.19 | 4 | 8 | > 64 |  |  |  |  |  |  |  |  |  |
